Series [1] relates to green peach aphid (Myzus persicae). Put plainly: Myzus test (MYZUPE spray treatment), Example 17. Format: in vivo. The following applies: application rate 100 g/ha, china cabbage leaf discs sprayed, after 6 days. How it is done:
Myzus Test (MYZUPE Spray Treatment)
• Solvent: 78 parts by weight of acetone • 1.5 parts by weight of dimethylformamide • Emulsifier: 0.5 part by weight of alkylaryl polyglycol ether
To prepare an appropriate active ingredient formulation, 1 part by weight of active ingredient is mixed with the stated amounts of solvent and emulsifier, and the concentrate is diluted with emulsifier-containing water to the desired concentration. Leaf discs from china cabbage (Brassica pekinensis) infested by all stages of the green peach aphid (Myzus persicae) are sprayed with an active ingredient formulation of the desired concentration.
After 6 days, the efficacy in % is determined. 100% means that all aphids were killed; 0% means that no aphids were killed.

Series [2] relates to armyworm (Spodoptera frugiperda). Put plainly: Spodoptera frugiperda test (SPODFR spray treatment), Example 15. In kind it is in vivo. The following applies: application rate 100 g/ha, maize leaf discs sprayed, after 7 days. Summed up:
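Maize leaf discs sprayed with active ingredient in acetone/DMF with alkylaryl polyglycol ether emulsifier, diluted in water, then populated with caterpillars after drying. Efficacy in % after 7 days: 100% all caterpillars killed, 0% none.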

Series [3] can be described thus: logP by HPLC on reverse-phase column (EEC Directive 79/831 Annex V.A8). In kind it is physicochemical. The following applies: HPLC-MS. How it is done:
The logP values reported in the above Tables and Preparation Examples were determined according to EEC Directive 79/831 Annex V.A8 by HPLC (High Performance Liquid Chromatography) on a reverse-phase column (C18). Temperature 43° C.

Experimental findings from patent publication US8889878B2, “Haloalky-substituted amides as insecticides and acaricides” (Bayer CropScience AG, priority 2009, dated 2014) are described below.

Regarding `O=C(/C=C/c1ccc(C(=O)NC2CC2)c(C(F)(F)F)c1)NC(c1cccc(SC(F)(F)F)c1)C(F)(F)F` (stereo not drawn) [Ia-256], the efficacy in % in series [1] and in series [2] was 100% in each case. Besides, the logP entry in series [3] is “HPLC-MS: logP = 3.51; mass”.
With `O=C(/C=C/c1ccc(C(=O)NC2CC2)c(C(F)(F)F)c1)NC(c1ccc(F)c(C(F)(F)F)c1)C(F)(F)F` (stereo not drawn) [Ia-280], the efficacy in % in series [1] and in series [2] was 100% each time. Also, the logP entry in series [3] (HPLC on reverse-phase column) is recorded as “HPLC-MS: logP = 3.46; mass”.
As to `O=C(/C=C/c1ccc(C(=O)NC2CCC2)c(Br)c1)NC(c1cccc(C(F)(F)F)c1)C(F)(F)F` (stereo not drawn) [Ia-179], the efficacy in % is 90% in series [1] and 83% in series [2]. Further, the logP entry in series [3] is given as “HPLC-MS: logP = 3.61; mass”.
In the same order, the values of `CN(C)NC(=O)c1ccc(/C=C/C(=O)NC(c2cccc(C(F)(F)F)c2)C(F)(F)F)cc1C(F)(F)F` (stereo not drawn) [Ia-131] are 100%, 100% and “HPLC-MS: logP = 3.05; mass”.
Take `CCC(=O)NCc1ccc(/C=C/C(=O)NC(c2ccc(F)c(Cl)c2)C(F)(F)F)cc1F` (stereo not drawn) [Ia-277]: the efficacy in % in series [1] and in series [2] was 100% in each case. Besides, the logP result in series [3] (HPLC on reverse-phase column) was “HPLC-MS: logP = 3.06; mass”.
Regarding `CCC(=O)NCc1ccc(/C=C/C(=O)NC(c2ccc(F)c(Cl)c2)C(F)(F)F)cc1C(F)(F)F` (stereo not drawn) [Ia-251], the figures for the efficacy in % in series [1] and in series [2] were 80% and 100%, respectively. Further, the logP entry in series [3] is “HPLC-MS: logP = 3.47; mass”.
In the case of `COC(=O)N(C)NC(=O)c1ccc(/C=C/C(=O)NC(c2cccc(C(F)(F)F)c2)C(F)(F)F)cc1C(F)(F)F` (stereo not drawn) [Ia-170], the efficacy in % was found to be 100% in series [1] and 83% in series [2]. Moreover, the logP result in series [3] is listed as “HPLC-MS: logP = 3.23; mass”.
For the compound `CC(C)(C#N)NC(=O)c1ccc(/C=C/C(=O)NC(c2cccc(C(F)(F)F)c2)C(F)(F)F)cc1Cl` (racemic) [Ia-195], the efficacy in % in series [1] and in series [2] was 100% throughout. Further, the logP result in series [3] is listed as “HPLC-MS: logP = 3.34; mass”.
As for `CC(=O)N(Cc1ccccn1)Cc1ccc(/C=C/C(=O)NC(c2cccc(C(F)(F)F)c2)C(F)(F)F)cc1F` (stereo not drawn) [Ia-252], the efficacy in % in series [1] and in series [2] was 100% in each case. Also, the logP entry in series [3] is “HPLC-MS: logP = 2.72; mass”.
With `O=C(/C=C/c1ccc(C(=O)NC2CC2)c(C(F)(F)F)c1)NC(c1ccc(F)c(Cl)c1)C(F)(F)F` (stereo not drawn) [Ia-279], the efficacy in % in series [1] and in series [2] was 100% throughout. Further, the logP entry in series [3] (HPLC on reverse-phase column) is given as “HPLC-MS: logP = 3.33; mass”.
For the compound `CCC(=O)NCc1ccc(/C=C/C(=O)NC(c2ccc(F)c(C(F)(F)F)c2)C(F)(F)F)cc1` (stereo not drawn) [Ia-282], the results for the efficacy in % in series [1] and in series [2] were 90% and 100%, respectively. The logP entry in series [3] (HPLC on reverse-phase column) is listed as “HPLC-MS: logP = 3.11; mass”.
Consider `CN(C(=O)c1ccc(/C=C/C(=O)NC(c2cccc(C(F)(F)F)c2)C(F)(F)F)cc1C(F)(F)F)c1ccccn1` (stereo not drawn) [Ia-239], for which the efficacy in % in series [1] was determined as 90%; in series [2], 100%. Besides, the logP result in series [3] is listed as “HPLC-MS: logP = 2.07; mass”.
Consider `O=C(/C=C/c1ccc(C(=O)Nc2ccc(Cl)cn2)c(Cl)c1)NC(c1cccc(C(F)(F)F)c1)C(F)(F)F` (stereo not drawn) [Ia-168], for which the efficacy in % came to 80% in series [1] and 100% in series [2]. Further, the logP result in series [3] was “HPLC-MS: logP = 4.28; mass”.
`CCC(=O)NCc1ccc(/C=C/C(=O)NC(c2cccc(C(F)(F)F)c2)C(F)(F)F)cc1F` (stereo not drawn) [Ia-276]: the efficacy in % in series [1] and in series [2] was 100% in each case. Besides, the logP entry in series [3] (HPLC on reverse-phase column) was “HPLC-MS: logP = 3.12; mass”.
